Test results published in article doi:10.1101/2023.08.28.555062, “Discovery of 2-amide-3-methylester thiophenes that target SARS-CoV-2 Mac1 and repress coronavirus replication, validating Mac1 as an anti-viral target” (bioRxiv, 2023).
Entries after “also recorded” stand apart in the source; their conditions may differ. Like-named read-outs stand apart in the source and are kept apart here.

Key:
SARS-CoV-2 Mac1 [1] = target: T1, SARS-CoV-2 Mac1 (Severe acute respiratory syndrome coronavirus 2, UniProt P0DTD1); assay type: binding; conditions: 100 μM concentration; ± standard deviation of three replicates
viral macrodomains = test: FRET profiling against panel of other viral macrodomains; assay type: binding; conditions: up to 100 μM
ALC1 = target: T2, ALC1 (Homo sapiens, UniProt Q86WJ1); test: FRET profiling / potency against ALC1 with YFP-GAP(PAR); assay type: binding; conditions: for inhibition at 1000 µM: read-out: maximum inhibition
T2 sequence (Q86WJ1 704-897 limits assumed): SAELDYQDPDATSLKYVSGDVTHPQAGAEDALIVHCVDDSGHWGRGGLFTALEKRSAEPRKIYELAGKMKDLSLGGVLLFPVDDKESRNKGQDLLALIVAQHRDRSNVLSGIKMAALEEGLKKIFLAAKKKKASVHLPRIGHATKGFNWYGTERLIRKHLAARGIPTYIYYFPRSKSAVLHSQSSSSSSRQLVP

PARP9 MD1 = PARP9 MD1 (Homo sapiens, UniProt Q8IXQ6); test: FRET profiling / potency against PARP9 MD1; assay type: binding
SARS-CoV-2 Mac1 [2] = target: T1, SARS-CoV-2 Mac1; test: biochemical; assay type: binding; conditions: for drop in potency relative to 1: from IC50 values
human macrodomains = test: FRET profiling against panel of human macrodomains and ARH3; assay type: binding
DBT cells = test: MTT cell viability assay, DBT cells; assay type: cell-based, mouse; conditions: 24 hours
Method: (§1) DBT, L929, and Calu-3 cells were treated with 27 for 24 hours. Cellular metabolic activity was assessed using a CyQUANT MTT Cell Proliferation Assay (Thermo Fisher Scientific) following manufacturer’s instructions.

[3] = target: macrodomains from MERS-CoV (Middle East respiratory syndrome-related coronavirus, UniProt K9N7C7); test: biochemical; assay type: binding
Chain of macrodomains from MERS-CoV (K9N7C7 1110-1276 limits assumed): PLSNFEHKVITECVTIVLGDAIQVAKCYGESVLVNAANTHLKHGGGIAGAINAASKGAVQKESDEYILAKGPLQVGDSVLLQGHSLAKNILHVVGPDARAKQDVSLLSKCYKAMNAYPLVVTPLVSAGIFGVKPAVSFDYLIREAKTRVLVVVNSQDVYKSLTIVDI

Calu-3 cells = test: MTT cell viability assay, Calu-3 cells; assay type: cell-based, human; conditions: 24 hours
Method: as §1

[4] = target: macrodomains from SARS-CoV (Severe acute respiratory syndrome coronavirus, UniProt P0C6X7)
SARS-CoV-2 = SARS-CoV-2 replication in Calu-3 cells with or without IFNγ, plaque assay; assay type: cell-based; conditions: 48 hpi
Method: Cells were infected with recombinant MHV-JHM or SARS-CoV-2 at a multiplicity of infection (MOI) of 0.1 PFU/cell with a 45–60 min adsorption phase, unless otherwise stated. Progeny cell-associated and cell-free virus was collected at indicated timepoints and viral titers were determined by plaque assay on Hela-MHVR (MHV) or Vero E6 (SARS-CoV-2) cells. All statistical analysis for viral infections was performed using GraphPad Prism software with an ordinary one-way ANOVA with a Dunnet’s test to correct for multiple comparisons to assess differences between treated and untreated samples. Graphs are expressed as means ± standard errors of the means. The n value represents the number of biological replicates for each group. Significant p values were denoted with asterisks. *, p≤0.05; **, p≤0.01, ***, p≤0.001, ****, p≤0.0001.

L929 cells = test: MTT cell viability assay, L929 cells; assay type: cell-based, mouse; conditions: 24 hours
Method: as §1

[5] = IC50, FRET assay, SARS-CoV-2 Mac1, text and Fig. 1C
[6] = FRET assay, SARS-CoV-2 Mac1, text and Fig. 1C, read-out: IC50
[7] = FRET assay, SARS-CoV-2 Mac1, text and Fig. 1C
[8] = IC50 (pIC50 ± SEM): IC50, Table 2, synthesized analogs, n=3
[9] = Table 1, commercial analogs, n=3, given with negative sign, read-out: IC50 (pIC50 ± SEM): pIC50 ± SEM (converted)
[10] = Table 2, synthesized analogs, n=3, read-out: IC50 (pIC50 ± SEM): IC50 (converted)

## Nc1ncnc2c1ncn2[C@H]1O[C@@H](COP(=O)(O)OP(=O)(O)OC[C@H]2O[C@@H](O)[C@H](O)[C@@H]2O)[C@H](O)[C@@H]1O [ADP-ribose, reference compound]
SARS-CoV-2 Mac1 [1]
  ΔTm: 2.0 ± 0.14 °C

## COC(=O)c1c(NC(=O)C2CC=CCC2C(=O)O)sc2c1CCCCC2 (stereo not shown) [Compound 1, 6-{[3-(methoxycarbonyl)-5,6,7,8-tetrahydro-4H-cyclohepta[b]thiophen-2-yl]carbamoyl}cyclohex-3-ene-1-carboxylic acid]
Viral macrodomains
  inhibition of other tested viral macrodomains: did not show effective inhibition
ALC1
  inhibition at 100 µM: ≥ 50%
  inhibition at 1000 µM: 58%
ALC1; partial inhibition only, read-out: IC50
  IC50: 6.8 µM
PARP9 MD1
  IC50: 64 µM
PARP9 MD1; 100 μM
  inhibition at 100 µM: ≥ 70%
SARS-CoV-2 Mac1 [2]; [5]
  IC50: 14 µM
Human macrodomains; 10 μM and 100 μM
  inhibition of human macrodomains: selective towards Mac1 over all human macrodomains

## COC(=O)c1c(NC(=O)CCC(=O)O)sc2c1CCCCC2 [Compound 2]
SARS-CoV-2 Mac1 [1]
  ΔTm: 0.3 ± 0.12 °C
SARS-CoV-2 Mac1 [2]; [6]
  IC50: 48 µM
SARS-CoV-2 Mac1 [2]
  drop in potency relative to 1: 3.5 fold

## COC(=O)c1c(NC(=O)c2ccccc2C(=O)O)sc2c1CCCC2 [Compound 3, 2-{[3-(methoxycarbonyl)-4,5,6,7-tetrahydro-1-benzothiophen-2-yl]carbamoyl}benzoic acid]
SARS-CoV-2 Mac1 [1]
  ΔTm: 0.7 ± 0.24 °C
SARS-CoV-2 Mac1 [2]; [6]
  IC50: 110 µM
SARS-CoV-2 Mac1 [2]
  drop in potency relative to 1: 7 fold

## COC(=O)c1c(NC(=O)C2C3CCC(CC3)C2C(=O)O)sc2c1CCCC2 (stereo not shown) [Compound 12]
SARS-CoV-2 Mac1 [2]; [7]
  IC50: completely abolished the inhibitory effect
SARS-CoV-2 Mac1 [2]; Table 1, commercial analogs, n=3, read-out: IC50 (pIC50 ± SEM): IC50 (converted)
  IC50: > 100 µM

## COC(=O)c1c(NC(=O)C2CCCCC2C(=O)O)sc2c1CCCCC2 (stereo not shown) [Compound 15r, 2-{[3-(methoxycarbonyl)-4H,5H,6H,7H,8H-cyclohepta[b]thiophen-2-yl]carbamoyl}cyclohexane-1-carboxylic acid]
SARS-CoV-2 Mac1 [2]; [8]
  IC50: 6.3 µM
SARS-CoV-2 Mac1 [2]; [5]
  IC50: 6.5 µM

## COC(=O)c1c(NC(=O)C2CCCCC2C(=O)O)sc2c1CCC2 (stereo not shown) [Compound 16]
SARS-CoV-2 Mac1 [2]; [9]
  IC50: 21.9 µM

## COC(=O)c1c(NC(=O)C2CCCCC2C(=O)O)sc2c1CCCC2 (stereo not shown) [Compound 17]
SARS-CoV-2 Mac1 [2]; [9]
  IC50: 18.6 µM

## N#Cc1c(NC(=O)C2CC=CCC2C(=O)O)sc2c1CCCCC2 (stereo not shown) [Compound 21, 6-[(3-cyano-5,6,7,8-tetrahydro-4H-cyclohepta[b]thiophen-2-yl)carbamoyl]cyclohex-3-ene-1-carboxylic acid]
SARS-CoV-2 Mac1 [2]; [7]
  IC50: inactive
SARS-CoV-2 Mac1 [2]; [10]
  IC50: > 100 µM

## CC(=O)c1c(NC(=O)C2CC=CCC2C(=O)O)sc2c1CCCCC2 (stereo not shown) [Compound 22, 6-[(3-acetyl-5,6,7,8-tetrahydro-4H-cyclohepta[b]thiophen-2-yl)carbamoyl]cyclohex-3-ene-1-carboxylic acid]
SARS-CoV-2 Mac1 [2]; [7]
  IC50: inactive
SARS-CoV-2 Mac1 [2]; [10]
  IC50: > 100 µM

## COC(=O)c1c(NC(=O)C2CC=CCC2C(=O)OC)sc2c1CCCCC2 (stereo not shown) [Compound 23, Methyl 2-[6-(methoxycarbonyl)cyclohex-3-ene-1-amido]-4H,5H,6H,7H,8H-cyclohepta[b]thiophene-3-carboxylate]
SARS-CoV-2 Mac1 [2]; Table 2, synthesized analogs, n=3, given with negative sign, read-out: IC50 (pIC50 ± SEM): pIC50 ± SEM (converted)
  IC50: 10.7 µM

## O=C(O)c1c(NC(=O)C2CCCCC2C(=O)O)sc2c1CCCCC2 (stereo not shown) [Compound 24, 2-[(2-carboxycyclohexane-1-carbonyl)amino]-5,6,7,8-tetrahydro-4H-cyclohepta[b]thiophene-3-carboxylic acid]
SARS-CoV-2 Mac1 [2]; [7]
  IC50: without inhibitory activity
SARS-CoV-2 Mac1 [2]; [10]
  IC50: > 100 µM

## COC(=O)c1c(NC(=O)[C@H]2CCCC[C@@H]2C(=O)O)sc2c1CCCCC2 [Compound 25, (1S,2S)-2-{[3-(methoxycarbonyl)-4H,5H,6H,7H,8H-cyclohepta[b]thiophen-2-yl]carbamoyl}cyclohexane-1-carboxylic acid]
SARS-CoV-2 Mac1 [2]; [8]
  IC50: > 100 µM

## COC(=O)c1c(NC(=O)[C@@H]2CCCC[C@H]2C(=O)O)sc2c1CCCCC2 [Compound 26, (1R,2R)-2-{[3-(methoxycarbonyl)-4H,5H,6H,7H,8H-cyclohepta[b]thiophen-2-yl]carbamoyl}cyclohexane-1-carboxylic acid]
SARS-CoV-2 Mac1 [2]; [8]
  IC50: 2.7 µM
SARS-CoV-2 Mac1 [2]; IC50 (pIC50 ± SEM): pIC50 ± SEM, Table 2, synthesized analogs, n=3, given with negative sign
  IC50: 2.75 µM

## COC(=O)c1c(NC(=O)[C@@H]2CCCC[C@H]2C(=O)O)sc2c1CCCCCC2 [Compound 27, (1R,2R)-2-{[3-(methoxycarbonyl)-4H,5H,6H,7H,8H,9H-cycloocta[b]thiophen-2-yl]carbamoyl}cyclohexane-1-carboxylic acid]
DBT cells
  cytotoxicity / viability (MTT): does not affect the viability; also recorded: did not have any cellular cytotoxicity
[3]
  IC50: > 100 µM
  inhibition %: 43%
Calu-3 cells
  cytotoxicity / viability (MTT): does not affect the viability; also recorded: did not lead to any cytotoxicity
ALC1
  IC50: 3 µM
  inhibition at 10 µM: ≥ 50%
  inhibition at 100 µM: ≥ 50%
  inhibition at 1000 µM: 63%
[4]
  inhibition %: 64%
SARS-CoV-2; absence of IFNγ
  antiviral effect on SARS-CoV-2: minimal, if any, antiviral effects
SARS-CoV-2; presence of IFNγ (100 U/ml), 25 μM
  reduction in virus replication: 10–15 fold
L929 cells
  cytotoxicity / viability (MTT): does not affect the viability; also recorded: did not have any cellular cytotoxicity
Human macrodomains
  inhibition of human macrodomains: did not show effective inhibition

## COC(=O)c1c(NC(=O)[C@@H]2CCCC[C@H]2C(=O)OC)sc2c1CCCCCC2 [Compound 28, Methyl 2-[(1R,2R)-2-(methoxycarbonyl)cyclohexaneamido]-4H,5H,6H,7H,8H,9H-cycloocta[b]thiophene-3-carboxylate]
SARS-CoV-2 Mac1 [2]; [7]
  IC50: completely inactive
SARS-CoV-2 Mac1 [2]; [10]
  IC50: > 100 µM
